# Experimental data as given in patent US11766430B2, “Methods of using a phenoxypropylamine compound to treat pain” (Minerva Neurosciences, Inc., priority 2018, dated 2023).
# Several values for one entry are separate records, joined by “and”; a condition that tells them apart may be missing. Identical values can stand only once.
# Tested on: carrageenan-induced mechanical hyperalgesia in rats
# Experiment: Carrageenan-induced mechanical hyperalgesia, paw pressure test, time course to 240 min (Example 2)
# Type: in vivo, male Sprague-Dawley rats
# Conditions: 3 mg/kg s.c.
# Procedure: In this model, inflammation is induced by intraplantar injection of carrageenan (2%) into the right hindpaw of the rat. Three hours later, reaction thresholds are measured using the paw pressure test. Pressure is gradually applied to both hind paws (inflamed and control) of the rat, and reaction thresholds are determined as the pressure (g) required to elicit paw withdrawal or vocalization. Morphine (3 mg/kg, s.c.) was used as a positive control.
# The experiments in this study used fifty (50) male Sprague-Dawley rats (SPF status, Janvier, France), each weighing 204-260 grams. The rats were housed in a temperature (20-24° C.) and relative humidity (45%-65%) controlled room and acclimated to an artificial day/night cycle of 12 hours light (6.30 a.m. to 6.30 p.m.)/12 hours darkness. Rats had free access to sterilized tap water and were fed ad libitum with pelleted complete diet (reference A04, S.A.F.E.). Rats were housed 4 per cage (cages Type E) and were acclimated for a period of at least 5 days before any testing. Each rat was identified by tail markings. Based on the SPF status of the animal facilities, there is no reason to expect that contaminants were present in the food, water or bedding, at levels capable of interfering with the results of the tests.
# Pain Test: Static mechanical hyperalgesia was assessed using the Paw Pressure test or Randall & Selitto test (Randall, L. O. and Selitto, J. J., A method for measurement of analgesic activity on inflamed tissue, Arch Int Pharmacodyn, 1957(111): 409-419). This test requires the application of an increasing pressure on the hind paws between a flat surface and a blunt pointer. This test is usually used with animals with one hind paw inflamed by an injection or injured by ligation, and one normal hind paw, to evaluate drugs for analgesic action. The apparatus exerts a steadily increasing force and reaction threshold is determined as the pressure (g) required to elicit paw withdrawal and/or vocalization. In the experiment, animals were gently handled by the experimenter and static mechanical hyperalgesia was assessed. Each reaction threshold measurement was done for both hind paws.
# Five (5) experimental groups of 10 rats each were used. Each group was first injected with of 100 μL of a 2% carrageenan suspension in the plantar aspect of the right hindpaw. Three hours after carrageenan injection, paw withdrawal threshold was measured using the paw pressure test (Baseline). The 5 groups were then administered the following: • Group 1: vehicle (0.5% HPMC), i.p., solution (negative control); • Group 2: MIN-117 (0.01 mg/kg, i.p.) in 0.5% HPMC, suspension; • Group 3: MIN-117 (0.1 mg/kg, i.p.) in 0.5% HPMC, suspension; • Group 4: MIN-117 (1 mg/kg, i.p.) in 0.5% HPMC, suspension; and • Group 5: morphine (3 mg/kg, s.c.) in 0.9% NaCl, solution (positive control).
# After administering vehicle, MIN-117, or morphine, the antihyperalgesic effect of the compounds was evaluated using the paw pressure test at 0 min. (T0), 30 min., 60 min., 120 min., and 240 min.
# Vehicle and MIN-117 were administered intraperitoneally at 10 mL/kg. Morphine was subcutaneously administered at 5 mL/kg. Dosing and testing were performed in a random order by a blinded experimenter except for the morphine-treated group. Doses were expressed in terms of free active substance. Rats were sacrificed at the end of the experiment by CO2 inhalation pending subsequent removal by a certified company.
# Results were assessed as: the paw withdrawal threshold (mean±s.e.m.) in grams of contact pressure for each group, calculated from individual paw withdrawal thresholds; the percentage of variation of the paw withdrawal threshold calculated from the mean value of the vehicle-treated group; and/or the percentage of activity. To determine a statistical effect of the test substance and the reference substance, data were analyzed by a non-parametrical test. The significance level was p<0.05.
# [1] = 120 min, listed as Morphine HCl
# [2] = 240 min, listed as Morphine HCl
# [3] = Baseline, listed as Morphine HCl
# [4] = T0 (baseline before dosing), listed as Morphine HCl
# [5] = T0 + 30 min, listed as Morphine HCl
structure (smiles),measurement,setting,value
"CN1CC[C@]23c4c5ccc(O)c4O[C@H]2[C@@H](O)C=C[C@H]3[C@H]1C5 [Morphine, reference compound]",Time of maximum effect on injured paw withdrawal threshold after treatment,,30 min
same,"Nociceptive threshold, control paw, individual rats","30 min, listed as Morphine HCl",680 g (9×) and 520 g
same,"Nociceptive threshold, injured paw, individual rats","30 min, listed as Morphine HCl",600 g and 620 g (2×) and 560 g and 640 g and 680 g (3×) and 440 g and 400 g
same,"Nociceptive threshold, control paw, individual rats","60 min, listed as Morphine HCl",580 g and 680 g (8×) and 520 g
same,"Nociceptive threshold, injured paw, individual rats","60 min, listed as Morphine HCl",440 g and 600 g (3×) and 460 g and 620 g (2×) and 680 g and 480 g and 380 g
same,"Nociceptive threshold, control paw, individual rats",[1],480 g and 320 g and 440 g (3×) and 500 g and 380 g and 520 g and 460 g and 360 g
same,"Nociceptive threshold, injured paw, individual rats",[1],280 g (3×) and 260 g and 400 g and 320 g (2×) and 440 g and 220 g and 200 g
same,"Nociceptive threshold, control paw, individual rats",[2],320 g (4×) and 360 g (4×) and 400 g and 420 g
same,"Nociceptive threshold, injured paw, individual rats",[2],160 g (3×) and 180 g (3×) and 200 g (2×) and 240 g and 140 g
same,"Nociceptive threshold, control paw, individual rats",[3],320 g (2×) and 440 g and 420 g (3×) and 360 g (2×) and 460 g and 380 g
same,"Nociceptive threshold, injured paw, individual rats",[3],160 g and 200 g (5×) and 220 g and 180 g (3×)
same,"% activity, injured paw",T0 (baseline before dosing),2%
same,"% variation vs control paw, injured paw",T0 (baseline before dosing),−51%
same,"% variation vs vehicle-treated group, injured paw",T0 (baseline before dosing),5%
same,"Nociceptive threshold, control paw (mean ± s.e.m.)",T0 (baseline before dosing),390.0 ± 15.6 g
same,"Nociceptive threshold, injured paw (mean ± s.e.m.)",T0 (baseline before dosing),192 ± 5.3 g
same,"Nociceptive threshold, control paw (mean ± s.e.m.)",[4],390. g
same,"Nociceptive threshold, injured paw (mean ± s.e.m.)",[4],192 g
same,"% activity, injured paw",T0 + 30 min,230%
same,"% variation vs control paw, injured paw",T0 + 30 min,−11%
same,"% variation vs pre-drug threshold, injured paw",T0 + 30 min,208%
same,"Nociceptive threshold, control paw (mean ± s.e.m.)",T0 + 30 min,664 g
same,"Nociceptive threshold, injured paw (mean ± s.e.m.)",T0 + 30 min,592 ± 31.3 g
same,"% variation vs vehicle-treated group, injured paw",[5],233%
same,"Nociceptive threshold, injured paw (mean ± s.e.m.)",[5],592 g
same,"% activity, injured paw",T0 + 60 min,214%
same,"% variation vs control paw, injured paw",T0 + 60 min,−16%
same,"% variation vs pre-drug threshold, injured paw",T0 + 60 min,185%
same,"% variation vs vehicle-treated group, injured paw",T0 + 60 min,191%
same,"Nociceptive threshold, control paw (mean ± s.e.m.)",T0 + 60 min,654 g
same,"Nociceptive threshold, injured paw (mean ± s.e.m.)",T0 + 60 min,548 ± 31.3 g
same,"Nociceptive threshold, injured paw (mean ± s.e.m.)","T0 + 60 min, listed as Morphine HCl",548 g
same,"% activity, injured paw",T0 + 120 min,72%
same,"% variation vs control paw, injured paw",T0 + 120 min,−31%
same,"% variation vs pre-drug threshold, injured paw",T0 + 120 min,56%
same,"% variation vs vehicle-treated group, injured paw",T0 + 120 min,61%
same,"Nociceptive threshold, control paw (mean ± s.e.m.)",T0 + 120 min,434 g
same,"Nociceptive threshold, injured paw (mean ± s.e.m.)",T0 + 120 min,300 ± 23.5 g
same,"Nociceptive threshold, injured paw (mean ± s.e.m.)","T0 + 120 min, listed as Morphine HCl",300 g
same,"% activity, injured paw",T0 + 240 min,−4%
same,"% variation vs control paw, injured paw",T0 + 240 min,−49%
same,"% variation vs pre-drug threshold, injured paw",T0 + 240 min,−6%
same,"% variation vs vehicle-treated group, injured paw",T0 + 240 min,−3%
same,"Nociceptive threshold, control paw (mean ± s.e.m.)",T0 + 240 min,354 g
same,"Nociceptive threshold, injured paw (mean ± s.e.m.)",T0 + 240 min,180 ± 8.9 g
same,"Nociceptive threshold, injured paw (mean ± s.e.m.)","T0 + 240 min, listed as Morphine HCl",180 g
same,Effect on injured paw withdrawal threshold vs vehicle-treated group (in words),from 30 min. to 120 min. after administration,marked and significant increase
